Assay results taken from PubChem BioAssay AID1963445 (Molecular Pharmacology Branch, DTP, NCI, 2024).
Values joined by “and” are separate entries in the source; they are usually repeats but may differ in a detail not shown here. Identical values can stand only once.

Test system: MCF7 complex spheroid growth, % test/control
Assay: Anticancer human tumor MCF7 cell line growth inhibition [Asc];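 note: spheroids exposed to compounds for 7 days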;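 for viability, T/C: 100% = DMSO vehicle control wells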
Conditions: for viability, T/C: stronger effect = lower value
Method: Multicellular complex tumor spheroid response to apoptosis pathway targeting inhibitors Alrizomadlin, Pelcitoclax, and Dasminapant in combination with a variety of drugs and investigational agents in selected tumor cell lines
The MDM2 inhibitor alrizomadlin, the Bcl-2/Bcl-xL inhibitor pelcitoclax, and the IAPs inhibitor dasminapant were evaluated both individually and in combination with standard of care and investigational anticancer small molecules within a complex spheroid model of solid tumors. . Complex spheroids include a stromal component modeled by human endothelial cells (HUVEC) and fibroblasts modeled by human mesenchymal stem cells (MSCs). The concentration ranges selected for each drug and investigational agent were based upon clinically achievable concentrations if the clinical Cmax of the agent was known.
Compounds. The drugs and investigational agents: alrizomadlin (APG-115; NSC831270), pelcitoclax (APG-1252; NSC835773), dasminapant (APG-1387;NSC834197), TAK-243 (NSC785004), copanlisib (NSC809693), olaparib (NSC753686), talazoparib (NSC767125), cobimetinib (NSC 768068), eltanexor (KPT-8602, NSC 794443), abemaciclib (NSC 768073), sotorasib (NSC818433), adagrasib (NSC 831453), MRTX-1133 (NSC 836407), Iadademestat (ORY1001, NSC 806812), and RMC-4630 (NSC839698), were obtained from the NCI Developmental Therapeutics Program Chemical Repository. The FDA-approved anticancer drug set is available from the Developmental Therapeutics Program at https://dtp.cancer.gov/organization/dscb/obtaining/available plates.htm. […] The stock solutions were prepared in dimethyl sulfoxide (DMSO, Sigma-Aldrich, St. Louis, MO, cat. D2650) at 800-fold the tested concentration and stored at -70 degrees C prior to their use. All drugs and investigational agents were tested over a range starting from a high concentration at or near the clinical Cmax and decreasing in half-log increments. If the clinical Cmax for an agent had not been determined, the highest concentration tested was 10 microM.
The patient-derived cancer (PDC) cell lines include five colon adenocarcinomas: 186277-243-T-J2-PDC, 616215-338-R-J1-PDC, 439559-082-T-J2-PDC, 463943-066-T-J2-PDC, and 519858-162-T-J1-PDC; three pancreatic carcinomas: 323965-272-R-J2-PDC, 521955-158-R6-J3-PDC, and 521955-158-R2-J5-PDC; two uterine sarcomas: 327498-152-R-J2-PDC and 993429-296-R-J1-PDC; two rhabdomyosarcomas: 755483-174-R-J1-PDC and 772245-204-R-J1-PDC; two soft tissue sarcomas: 126254-015-R-J1-PDC and 494315-158-R-J1-PDC; two malignant fibrous histiocytomas: 317291-083-R-J1-PDC and 596521-263-R-J1-PDC; two breast carcinomas: 171881-019-R-J1-PDC and 885512-296-R-J2-PDC; and one ovarian carcinoma: 6556581-035-R-J-PDC were obtained from the NCI PDMR, (https://pdmr.cancer.gov). The established cell lines HSSY-2 synovial sarcoma (RRID:CVCL 8719), SYO-1 synovial sarcoma (RRID:CVCL_7146), MPNST malignant peripheral neural sheath tumor were obtained from the Sloan Kettering Institute. The following established cell lines were purchased from the American Type Culture Collection (ATCC, Manassas, VA), Sor the received from the NCI repository:, PANC-1 pancreatic carcinoma (CRL-1469, RRID:CVCL_0480), OVCAR-5 ovarian carcinoma (RRID:CVCL_1628), OVCAR-8 ovarian carcinoma (RRID:CVCL_1629), , MCF-7 breast carcinoma (CRL-12584, RRID:CVCL_0031), MDA-MB-231 breast carcinoma (CRL-12532, RRID:CVCL_0062), NCI-H1876 small cell lung carcinoma (CRL-5902, RRID:CVCL_1503), NCI-H510A small cell lung carcinoma (HTB-184, RRID:CVCL_1565), NCI-H1417 (CRL-5869, RRID:CVCL_1469), and NCI-H196 small cell lung carcinoma (CRL-5823, RRID:CVCL_1509). Dr. Peter Houghton (Greehey Children's Cancer Research Institute, University of Texas Health Science Center, San Antonio, TX) provided Rh-18 rhabdomyosarcoma (RRID:CVCL_1659). Pooled donor human umbilical vein endothelial cells (HUVEC, Lonza, cat. CC-2519) and human mesenchymal stem cells (hMSC, Lonza, cat. PT-2501) were purchased from Lonza (Walkersville, MD).
Cell Culture. […]

With `O=C(c1ccc(F)c(F)c1Nc1ccc(I)cc1F)N1CC(O)([C@@H]2CCCCN2)C1` + CNC(C)C(=O)NC1CN(S(=O)(=O)c2cccc(S(=O)(=O)N3CCC4CCC(C(=O)NC(c5ccccc5)c5ccccc5)N4C(=O)C(NC(=O)C(C)NC)C3)c2)CCC2CCC(C(=O)NC(c3ccccc3)c3ccccc3)N2C1=O the IC50 (curve of first compound, second compound 0.00316 µM) was < 3.16 nM, the IC50 (curve of first compound, second compound 0.01 µM) was < 3.16 nM and the IC50 (curve of first compound, second compound 0.0316 µM) was < 3.16 nM. The IC50 (curve of first compound, second compound 0.1 µM) was < 3.16 nM, the IC50 (curve of first compound, second compound 0.316 µM) was < 3.16 nM and the IC50 (curve of first compound, second compound 1 µM) was < 3.16 nM. The viability, T/C (second compound 0.00316 µM, first compound 0.00316 µM) was 38.1%, the viability, T/C (second compound 0.00316 µM, first compound 0.01 µM) was 41.5% and the viability, T/C (second compound 0.00316 µM, first compound 0.0316 µM) was 34.6%. It also gave a viability, T/C (second compound 0.00316 µM, first compound 0.1 µM) of 26%, a viability, T/C (second compound 0.00316 µM, first compound 0.316 µM) of 19.4% and a viability, T/C (second compound 0.00316 µM, first compound 1 µM) of 12.3%. The viability, T/C (second compound 0.01 µM, first compound 0.00316 µM) was 17.3%, the viability, T/C (second compound 0.01 µM, first compound 0.01 µM) was 14.8% and the viability, T/C (second compound 0.01 µM, first compound 0.0316 µM) was 17.2%. It also gave a viability, T/C (second compound 0.01 µM, first compound 0.1 µM) of 12.9%, a viability, T/C (second compound 0.01 µM, first compound 0.316 µM) of 12.9% and a viability, T/C (second compound 0.01 µM, first compound 1 µM) of 11.6%. The viability, T/C (second compound 0.0316 µM, first compound 0.00316 µM) was 14.8%, the viability, T/C (second compound 0.0316 µM, first compound 0.01 µM) was 15.4% and the viability, T/C (second compound 0.0316 µM, first compound 0.0316 µM) was 13.3%. The viability, T/C (second compound 0.0316 µM, first compound 0.1 µM) was 16.4%, the viability, T/C (second compound 0.0316 µM, first compound 0.316 µM) was 10.7% and the viability, T/C (second compound 0.0316 µM, first compound 1 µM) was 10.2%. It also gave a viability, T/C (second compound 0.1 µM, first compound 0.00316 µM) of 13.2%, a viability, T/C (second compound 0.1 µM, first compound 0.01 µM) of 13.5% and a viability, T/C (second compound 0.1 µM, first compound 0.0316 µM) of 14.4%. It also gave a viability, T/C (second compound 0.1 µM, first compound 0.1 µM) of 12.3%, a viability, T/C (second compound 0.1 µM, first compound 0.316 µM) of 13.8% and a viability, T/C (second compound 0.1 µM, first compound 1 µM) of 9.72%. The viability, T/C (second compound 0.316 µM, first compound 0.00316 µM) was 13.3%, the viability, T/C (second compound 0.316 µM, first compound 0.01 µM) was 14.3% and the viability, T/C (second compound 0.316 µM, first compound 0.0316 µM) was 15.9%. The viability, T/C (second compound 0.316 µM, first compound 0.1 µM) was 12.5%, the viability, T/C (second compound 0.316 µM, first compound 0.316 µM) was 11.6% and the viability, T/C (second compound 0.316 µM, first compound 1 µM) was 12.4%. The viability, T/C (second compound 1 µM, first compound 0.00316 µM) was 14.6%, the viability, T/C (second compound 1 µM, first compound 0.01 µM) was 13.8% and the viability, T/C (second compound 1 µM, first compound 0.0316 µM) was 12.4%. For the same compound, the viability, T/C (second compound 1 µM, first compound 0.1 µM) was 12.9%, the viability, T/C (second compound 1 µM, first compound 0.316 µM) was 13% and the viability, T/C (second compound 1 µM, first compound 1 µM) was 13.2%.

For `Cn1ncnc1[C@H]1c2n[nH]c(=O)c3cc(F)cc(c23)N[C@@H]1c1ccc(F)cc1`, the viability, T/C (compound 0.000316 µM) was 95.7% and 82.9% and 96.4%, the viability, T/C (compound 0.001 µM) was 97.3% and 106% and 99.9% and the viability, T/C (compound 0.00316 µM) was 97.1% and 107% and 101%. The viability, T/C (compound 0.01 µM) was 63.8% and 84.2% and 67.2%, the viability, T/C (compound 0.0316 µM) was 60% and 87.7% and 88.1% and the viability, T/C (compound 0.1 µM) was 48.8% and 84.9% and 75.1%. For the same compound, the IC50 (curve of compound) was > 100 nM.
